Data published in patent US20260271925A1, “DYSREGULATION OF PLANKTONIC BACTERIAL METABOLISM” (Lixa Limited, priority 2023, published 2026).
≈ marks a conversion by molar mass, not a printed value.

Columns and labels:
[1] = system: S. pneumoniae D39; experiment: Minimum inhibitory concentration by broth microdilution (Example 2); assay type: cell-based, Streptococcus pneumoniae; details: for MIC + 1 mM D-Lactic acid: antibiotic + 1 mM D-Lactic acid; for MIC + 10 mM D-Lactic acid: antibiotic + 10 mM D-Lactic acid; for MIC: antibiotic alone
Protocol: (§1) Bacterial strains were maintained as suspensions in 20% (v/v) glycerol/Brain-Heart Infusion at −80° C. For use, a loop-full of ice was scraped from the stock and streaked for single colonies on rich media containing 1.8% agar (for Pseudomonas aeruginosa or Klebsiella pneumoniae, Luria-Bertani medium; for Staphylococcus aureus or Streptococcus pneumoniae, Trypticase Soy agar) and incubated overnight at 37° C.
(§2) A standard inoculum was prepared from broth culture. 1 to 3 colonies from an overnight agar culture plate were transferred to 5 ml of broth media and incubated at 37° C. with shaking (200 rpm) until turbidity was greater than that of a 0.5 McFarland Standard (overnight). The following broth media were used: Cation-adjusted Mueller-Hinton broth (caMHB—all strains); Roswell Park Memorial Institute medium (RPMI 1640, phenol red-free—S. aureus); Trypticase Soya Broth (TSB—S. aureus, S. pneumoniae); Todd Hewitt Broth (THB—S. pneumoniae), M63 minimal medium, supplemented with 0.2% glucose (M63—K. pneumoniae).
(§3) The broth culture was diluted in broth to a turbidity equal to a 0.5 McFarland Standard using a spectrophotometer at a wavelength of 620 nm. The 0.5 McFarland Standard was further diluted 1:100 in broth to create the standard inoculum. 50 μl of this standard inoculum was dispensed into every well in the microtitre tray, except the negative controls, where 50 μl of broth was dispensed instead.
(§4) Next, a working concentration at two times the highest target concentration for every antimicrobial was created in broth from stock solutions. 100 μl of this working concentration was pipetted into the first well, and 50 μl of broth media into all other wells. 50 μl of the first well was pipetted out and serially diluted across all wells in the row until the final concentration in the range achieved. 50 μl from the final well was removed and discarded. This produced a concentration range where each well was double the target concentration. All agents were performed in duplicate.
(§5) 96 well trays were incubated at 37° C. for 18±2 hours.

[2] = system: S. pneumoniae D39; experiment: Resazurin reduction for the evaluation of metabolic activity (Example 2); assay type: cell-based, Streptococcus pneumoniae; details: plus 10 mM D-Lactic acid
Protocol: (§6) Bacterial strains were maintained as suspensions in 20% (v/v) glycerol/Brain-Heart Infusion at −80° C.
(§7) Aerobic respiration was measured in the presence or absence of D-Lactic acid and the presence or absence of companion antibiotics either following incubation and visual recording of the MIC, or in a separate study. For evaluation after completion of MIC determination, the entire volume of the MIC well (100 μl) was mixed by pipetting up and down, then transferred to the equivalent well of a fluorescence-absorbance suitable 96-well plate. Alternatively, cultures were pipetted together as above and incubated overnight at 37° C. in the absence of any antimicrobial compounds. Culture supernatants were removed, adherent cells washed and then treated by the addition of 100 μL of fresh broth, 50 μL of broth containing 4×the desired concentration of antibiotic and 50 μL containing 4×the desired concentration of D-Lactic acid or vehicle only controls, followed by incubation at 37° C. for a further 18±2 hours. After incubation regimes were completed for both procedures, resazurin reduction was evaluated by adding 10 μl of a 0.02% resazurin solution to every well, and incubating the plates with gentle shaking (40 rpm) for a further 90 minutes at 37° C. 96-well plates and resazurin were protected from light as much as possible.
(§8) Following incubation, the 96-well trays were read on a fluorescence-absorbance spectrophotometer, using an excitation frequency of 565 nm and emission frequency of 590 nm. The value for each well was blanked by subtracting the value of the negative control. Every value was then converted to a ratio with respect to the mean value of the positive controls.

[3] = system: P. aeruginosa WACC91; experiment: Minimum inhibitory concentration by broth microdilution (Example 2); assay type: cell-based, Pseudomonas aeruginosa; details: for MIC + 1 mM D-Lactic acid: antibiotic + 1 mM D-Lactic acid; for MIC + 10 mM D-Lactic acid: antibiotic + 10 mM D-Lactic acid; for MIC: antibiotic alone
Protocol: as §1, §2, §3, §4, §5

[4] = system: S. aureus 29213 (MSSA); experiment: as above; assay type: cell-based, Staphylococcus aureus; details: for MIC + 1 mM D-Lactic acid: antibiotic + 1 mM D-Lactic acid; for MIC + 10 mM D-Lactic acid: antibiotic + 10 mM D-Lactic acid
Protocol: as §6
(§9) A standard inoculum was prepared from broth culture.
as §3, §4, §5

[5] = system: S. aureus 510 (MRSA); experiment: as above; assay type: cell-based, Staphylococcus aureus; details: unit assumed; for MIC + 1 mM D-Lactic acid: antibiotic + 1 mM D-Lactic acid; for MIC + 10 mM D-Lactic acid: antibiotic + 10 mM D-Lactic acid; for MIC: antibiotic alone
Protocol: as §6, §9, §3, §4, §5

[6] = system: S. aureus 29213 (MSSA); experiment: Resazurin reduction for the evaluation of metabolic activity (Example 2); assay type: cell-based, Staphylococcus aureus; details: plus 10 mM D-Lactic acid
Protocol: as §6, §7, §8

[7] = system: S. aureus 510 (MRSA); experiment: as above; assay type: cell-based, Staphylococcus aureus
Protocol: as §6, §7, §8

| Structure (SMILES) | MIC + 1 mM D-Lactic acid [1] | MIC + 10 mM D-Lactic acid [1] | MIC [1] | Relative metabolic activity, antibiotic plus D-Lactic acid versus antibiotic only [2] | MIC + 1 mM D-Lactic acid [3] | MIC + 10 mM D-Lactic acid [3] | MIC [3] | MIC + 1 mM D-Lactic acid [4] | MIC + 10 mM D-Lactic acid [4] | MIC + 1 mM D-Lactic acid [5] | MIC + 10 mM D-Lactic acid [5] | MIC [5] | Relative metabolic activity, antibiotic plus D-Lactic acid versus antibiotic only [6] | Relative metabolic activity, antibiotic plus D-Lactic acid versus antibiotic only ([7]; plus 0.1 mM D-Lactic acid) | Relative metabolic activity, antibiotic plus D-Lactic acid versus antibiotic only ([7]; plus 10 mM D-Lactic acid) | Relative metabolic activity, antibiotic plus D-Lactic acid versus antibiotic only ([7]; plus 1.0 mM D-Lactic acid) |
| --- | --- | --- | --- | --- | --- | --- | --- | --- | --- | --- | --- | --- | --- | --- | --- | --- |
| CC1(C)S[C@@H]2[C@H](NC(=O)[C@H](N)c3ccccc3)C(=O)N2[C@H]1C(=O)O [ampicillin] | 4.0 | 4.0 | >16.0 | enhances metabolic activity suppression | – | – | – | – | – | – | – | – | – | – | – | – |
| C[C@H]1[C@H](NC(=O)/C(=N\OC(C)(C)C(=O)O)c2csc(N)n2)C(=O)N1S(=O)(=O)O [aztreonam] | – | – | – | – | 4.0 | 4.0 | 8.0 | – | – | – | – | – | – | – | – | – |
| CO/N=C(\C(=O)N[C@@H]1C(=O)N2C(C(=O)O)=C(CSc3nc(=O)c(=O)[nH]n3C)CS[C@H]12)c1csc(N)n1 [ceftriaxone] | – | – | – | enhances metabolic activity suppression | – | – | – | 4.0 | 4.0 | 8 µg/mL | 8 µg/mL | 16 µg/mL (≈ 28.9 µM) | enhances metabolic activity suppression | enhances metabolic activity suppression | – | – |
| C[C@@H](O)[C@H]1C(=O)N2C(C(=O)O)=C(S[C@@H]3CN[C@H](C(=O)N(C)C)C3)[C@H](C)[C@H]12 [meropenem] | 0.25 | 0.5 | 0.5 | – | <0.5 | <0.5 | 1.0 | 0.5 | 0.5 | 2 µg/mL | 2 µg/mL | > 4 µg/mL | enhances metabolic activity suppression | – | enhances metabolic activity suppression | – |
| COc1cccc(OC)c1C(=O)N[C@@H]1C(=O)N2[C@@H]1SC(C)(C)[C@@H]2C(=O)O [methicillin] | – | – | – | – | – | – | – | 0.5 | 0.5 | 2 µg/mL | 2 µg/mL | > 16 µg/mL | enhances metabolic activity suppression | – | enhances metabolic activity suppression | – |
| CN(C)[C@@H]1C(O)=C(C(N)=O)C(=O)[C@@]2(O)C(O)=C3C(=O)c4c(O)cccc4[C@@](C)(O)[C@H]3C[C@@H]12 [tetracycline] | – | – | – | – | – | – | – | – | – | < 0.5 µg/mL | < 0.5 µg/mL | 1 µg/mL (≈ 2.25 µM) | – | – | – | – |
| CN[C@H](CC(C)C)C(=O)N[C@H]1C(=O)N[C@@H](CC(N)=O)C(=O)N[C@H]2C(=O)N[C@H]3C(=O)N[C@H](C(=O)N[C@H](C(=O)O)c4cc(O)cc(O)c4-c4cc3ccc4O)[C@H](O)c3ccc(c(Cl)c3)Oc3cc2cc(c3O[C@@H]2O[C@H](CO)[C@@H](O)[C@H](O)[C@H]2O[C@H]2C[C@](C)(N)[C@H](O)[C@H](C)O2)Oc2ccc(cc2Cl)[C@H]1O [vancomycin] | – | – | – | enhances metabolic activity suppression | – | – | – | 4.0 | 2.0 | 2 µg/mL | 2 µg/mL | 8 µg/mL (≈ 5.52 µM) | enhances metabolic activity suppression | – | – | enhances metabolic activity suppression |
